Measurements: patent US5665779A, “Pharmaceutical composition for inhibiting the infection with AIDS virus” (Zaidan, Hojin, Biseibutsu, Kagaku, Kenkyu, Kai, priority 1991, dated 1997)
Values after ≈ are worked out from the molar mass of the structure shown. Where two headings read alike, the source gives them in different places.

Key:
[1] = system: HIV (HTLV-IIIB strain) in MT-4 cells (human T-cell line); test: Inhibition of infection of human T-cells (MT-4) with HIV, HIV antigen-positive cells by indirect immunofluorescence; format: cell-based; details: for EC50: MT-4 cells, read-out: 50% Effective concentration (ED50) against HIV
Description: Effects of D-β-lysylmethanediamine inhibitory to infection of human T-cells with HIV were examined in a similar manner to the assay methods described in the "Proc. Natl. Acad, Sci. USA," 80, 6061-6065 (1983); "J. Antibiot.", 40, 1077-1078, (1987); "J. Antibiot.", 42, 344-346 (1989) and "J. Antibiot." 44, 1228-1236 (1991).
1×10^5 Cells/ml of MT-4 cells (human T-cell line) in phosphate buffered saline were seeded into Costar 48-well plates in an amount of 0.5 ml/well. Each well was added with 0.05 ml of a solution of the test compound, namely D-β-lysylmethanediamine (dissolved at different concentrations of 3, 10, 30 and 100 μg per ml in phosphate buffered saline). After incubation for 2 hours at 37° C. under 5% CO2, the MT-4 cells were infected with 0.05 ml of HIV (HTLV-IIIB strain) as added in an amount of multiplicity of infection (m.o.i) of 0.025 to 0.05 in each well. The plates were incubated for 4 days at 37° C. under 5% CO2 so that the T-cells were treated in the presence of the test compound at the different concentrations.
Portions of the incubated cultures were taken and the MT-4 cells were smeared onto slide glasses, dried and fixed with acetone. The presence of the HIV antigen-positive MT-4 cells was detected by the indirect immunofluoroescent assay [Y. Hinuma et al., "Proc. Natl. Acad. Sci. USA," 78, 6476-6480, (1981) and Y. Takeuchi et al., "Gann.", 78, 11-15 (1987)]. To this end, the cell smears, that is, the acetone-fixed cell smears were treated at 37° C. for 30 minutes with such serum of AIDS patient at a dilution of 1:10 in phosphate buffered saline, which was employed as the first antibody. After washing subsequently with phosphate buffered saline, the MT-4 cells were treated at 37° C. for 30 minutes with fluorescent isothiocyanate-conjugated rabbit anti-human IgG serum (Cappel Laboratories, Cocharanville, Pa., USA), which was employed as the second antibody. After the cell smears were then washed with phosphate buffered saline and covered with a cover glass, the MT-4 cells were examined under a fluorescence microscope. Percentages of the number of the viral antigen-positive MT-4 cells (namely, immunofluorescent cells where the HIV-associated antigens were present and expressed) in total cells were calculated.
For the control tests of estimating the number of the total cells under test, the above test procedures were repeated without addition of D-β-lysylmethanediamine.
In order to evaluate the activity of D-β-lysylmethanediamine to inhibit the infection of human T-cells, namely the MT-4 cells with HIV, calculation was made of the percentages (T/C, %) of the number (T) of the HIV antigen-positive cells as measured in the above-mentioned tests where the incubation of MT-4 cells was effected in the presence of the test compound, against the number (C) of the HIV antigen-positive cells as measured in the above-mentioned control tests where the incubation of MT-4 cells was effected without the addition of the test compound. The results of such calculation of the T/C values (%) are shown in Table 1 in term of rate (%) of presence or occurrence of the HIV antigen-positive cells.

Hygroscopicity = format: physicochemical; details: colorless powdery substance, Referential Example 1
[2] = colorless powder; reported earlier; cited from earlier work
protease of HIV = target: T1, protease of HIV (HIV-1 M:B_HXB2R, UniProt P04585); test: Activity inhibitory to protease of HIV; format: biochemical; details: 100 μg/ml
T1 construct: preparation not described

Gram-positive bacteria = details: J. Antibiotics 39(3), 476 (1986); Kokai Sho-62-114947; cited from earlier work
[3] = Extractability with organic solvents; format: physicochemical; details: from liquid portion of the culture
Solubility in water = format: physicochemical; details: in words
[4] = Acute toxicity in mice, intravenous; details: mouse, in vivo, read-out: Dosage tolerated without death (acute toxicity)
Description: D-β-Lysylmethanediamine used according to this invention is characterised by its low toxicity to mammalian animals. For instance, in the tests of estimating acute toxicity of this compound where mice were intravenously administered with D-β-lysylmethanediamine, the mice having received administration of D-β-lysylmethanediamine could tolerate a dosage of 250 mg/kg of D-β-lysylmethanediamine without involving their death.

MT-4 cells = test: Cytotoxicity to MT-4 cells in the absence of HIV; format: cell-based, human; details: even at a concentration of 100 μg/ml
Description: Furthermore, cytotoxicity of D-β-lysylmethanediamine to the MT-4 cells was estimated. This was done by incubating the MT-4 cells at varying concentrations of D-β-lysylmethanediamine added and in the absence of HIV but in the same manner of incubation and under the same conditions of incubation of MT-4 cells as those employed in the above-mentioned test procedures of assaying the activity of D-β-lysylmethanediamine to inhibit the infection of T-cells with HIV. That the cytotoxicity was not observed is represented by the symbol "-" in Table 1 below.

[5] = target: T2, reverse transcriptase of HIV (HIV-1 M:B_HXB2R, UniProt P04585); test: Activity inhibitory to reverse transcriptase of HIV; format: biochemical; details: 100 μg/ml
T2 construct: preparation not described
Source text: Thus, it is apparent that D-β-lysylmethanediamine can inhibit strongly the infection of human T-cells with HIV by any mechanism yet unknown.

[6] = Human immunodeficiency virus 1, IIIB, MT4, 96 h

SMILES: OC[C@@H]1CC[C@H](n2cnc3c(O)ncnc32)O1 [DDI, 2',3'-dideoxyinosine, reference compound]
- EC50 [1, 6]: 0.46 µg/mL (≈ 1.95 µM)
- Effect of inhibiting the infection of human T-cells with HIV compared with D-β-lysylmethanediamine (in words) ([1]; relative to D-β-lysylmethanediamine, from ED50): to the same extent

SMILES: NCCC[C@@H](N)CC(=O)NCN [D-β-lysylmethanediamine hemicarbonate]
- Hygroscopicity (Hygroscopicity): hygroscopic
- Hygroscopicity [2]: hygroscopic

SMILES: NCCC[C@@H](N)CC(=O)NCN [D-β-lysylmethanediamine]
- Activity inhibitory to protease of HIV (protease of HIV): nor any activity inhibitory to protease of HIV
- Antibacterial activity against Gram-positive bacteria (Gram-positive bacteria): weak antibacterial activity
- activity at 3 µg/mL ([1]; Human immunodeficiency virus 1, IIIB, MT4, 96 h, 3 μg/ml, T/C % vs control without test compound, 4 days, 37° C., read-out: Rate (%) of presence of HIV antigen-positive cells): 30%
- activity at 10 µg/mL ([1]; Human immunodeficiency virus 1, IIIB, MT4, 96 h, 10 μg/ml, T/C % vs control without test compound, 4 days, 37° C., read-out: Rate (%) of presence of HIV antigen-positive cells): 15%
- activity at 30 µg/mL ([1]; Human immunodeficiency virus 1, IIIB, MT4, 96 h, 30 μg/ml, T/C % vs control without test compound, 4 days, 37° C., read-out: Rate (%) of presence of HIV antigen-positive cells): 10%
- activity at 100 µg/mL ([1]; Human immunodeficiency virus 1, IIIB, MT4, 96 h, 100 μg/ml, T/C % vs control without test compound, 4 days, 37° C., read-out: Rate (%) of presence of HIV antigen-positive cells): 5%
- EC50 [1, 6]: 0.62 µg/mL (≈ 3.56 µM)
- Reduction of the number of HIV antigen-positive cells (in words) ([1]; concentrations of no more than 100 μg/ml): reduce significantly
- Extraction with butanol, butyl acetate, chloroform and other organic solvents [3]: substantially connot be extracted
- Solubility in water (Solubility in water): well soluble in water
- MTD [4]: ≥ 250 mg/kg
- Cytotoxicity (in words) (MT-4 cells): no cytotoxicity
- Activity inhibitory to reverse transcriptase of HIV [5]: neither any activity inhibitory to reverse transcriptase of HIV
